Measurements: publication PMC12675387, “Receptor interaction profiles of 4-alkoxy-2,6-dimethoxyphenethylamines (Ψ derivatives) and related amphetamines” (Frontiers in Pharmacology, 2025)

Tests used:
[1] = biological target: T1, h5-HT2C receptor (Homo sapiens, UniProt P28335); assay: Radioligand binding, 5-HT2C receptor ([3H]mesulergine)
T1 sequence (P28335 33-458): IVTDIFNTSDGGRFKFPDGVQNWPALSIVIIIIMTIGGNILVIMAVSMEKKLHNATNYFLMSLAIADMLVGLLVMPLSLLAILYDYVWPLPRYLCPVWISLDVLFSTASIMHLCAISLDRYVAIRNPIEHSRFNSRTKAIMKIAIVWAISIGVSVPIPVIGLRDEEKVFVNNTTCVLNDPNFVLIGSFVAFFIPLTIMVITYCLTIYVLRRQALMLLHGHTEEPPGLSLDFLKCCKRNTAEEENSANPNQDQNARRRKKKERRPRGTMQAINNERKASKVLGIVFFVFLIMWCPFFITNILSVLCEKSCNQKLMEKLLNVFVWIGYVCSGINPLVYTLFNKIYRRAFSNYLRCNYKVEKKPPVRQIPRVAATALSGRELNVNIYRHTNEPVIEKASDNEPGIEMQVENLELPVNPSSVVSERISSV

[2] = biological target: rTAAR1 (Rattus norvegicus, UniProt Q923Y9); assay: Radioligand binding, rat TAAR1 ([3H]RO5166017)
Chain of rTAAR1 (Q923Y9 whole entry): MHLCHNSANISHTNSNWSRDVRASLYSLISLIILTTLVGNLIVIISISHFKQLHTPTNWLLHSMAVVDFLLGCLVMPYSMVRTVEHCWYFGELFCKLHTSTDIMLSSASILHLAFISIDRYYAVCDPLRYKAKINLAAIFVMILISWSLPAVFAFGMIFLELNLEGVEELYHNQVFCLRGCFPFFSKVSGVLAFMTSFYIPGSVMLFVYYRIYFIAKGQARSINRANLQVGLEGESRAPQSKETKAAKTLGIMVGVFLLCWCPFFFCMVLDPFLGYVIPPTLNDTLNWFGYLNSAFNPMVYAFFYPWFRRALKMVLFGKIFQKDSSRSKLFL

[3] = biological target: T2, hα1A adrenergic receptor (Homo sapiens, UniProt P35348); assay: Radioligand binding, α1A adrenergic receptor ([3H]prazosin); conditions: hα1A Ki ± SD
T2 sequence (P35348 1-466): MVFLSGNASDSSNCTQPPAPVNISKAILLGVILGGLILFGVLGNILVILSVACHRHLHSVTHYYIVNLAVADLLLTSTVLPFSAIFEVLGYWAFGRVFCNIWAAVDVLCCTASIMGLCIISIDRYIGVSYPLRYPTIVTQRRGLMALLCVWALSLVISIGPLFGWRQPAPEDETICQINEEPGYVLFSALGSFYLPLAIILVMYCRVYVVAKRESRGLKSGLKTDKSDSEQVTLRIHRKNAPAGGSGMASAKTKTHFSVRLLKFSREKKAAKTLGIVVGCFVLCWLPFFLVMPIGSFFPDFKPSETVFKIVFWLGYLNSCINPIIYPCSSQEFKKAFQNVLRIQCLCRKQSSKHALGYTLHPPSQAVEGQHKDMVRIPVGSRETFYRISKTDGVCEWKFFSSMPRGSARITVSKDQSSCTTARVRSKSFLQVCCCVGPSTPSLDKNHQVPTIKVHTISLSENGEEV

[4] = biological target: T3, human 5-HT2A receptor (Homo sapiens, UniProt P28223); assay: Activation potency and efficacy at the 5-HT2A receptor (FLIPR calcium, NIH-3T3 cells); assay type: cell-based; conditions: for Emax: NIH3T3, relative to 5-HT (100%), read-out: h5-HT2A activation efficacy Emax ± SD
T3 construct: expressed in transfected cells; host or cells: NIH-3T3 mouse embryonic fibroblasts
T3 sequence (P28223 whole entry): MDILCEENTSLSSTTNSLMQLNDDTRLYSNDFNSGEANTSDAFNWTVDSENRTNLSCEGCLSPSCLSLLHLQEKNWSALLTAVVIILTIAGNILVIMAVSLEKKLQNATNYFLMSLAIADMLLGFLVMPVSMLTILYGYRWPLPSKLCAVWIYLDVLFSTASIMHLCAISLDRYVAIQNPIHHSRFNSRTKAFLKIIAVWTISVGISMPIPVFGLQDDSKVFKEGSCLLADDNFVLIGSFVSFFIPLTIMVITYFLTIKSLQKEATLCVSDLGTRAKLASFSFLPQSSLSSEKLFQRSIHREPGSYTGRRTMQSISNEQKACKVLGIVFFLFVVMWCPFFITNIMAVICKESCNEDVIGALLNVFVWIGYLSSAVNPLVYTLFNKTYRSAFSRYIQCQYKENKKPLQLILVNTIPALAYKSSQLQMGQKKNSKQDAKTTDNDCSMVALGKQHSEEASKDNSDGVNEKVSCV
Protocol: The activation potency and efficacy at the 5-HT2A receptor were determined as previously described by [Luethi et al. (2018)]. In short, mouse embryonic fibroblasts (NIH-3T3 cells) stably transfected with the human 5-HT2A receptor were seeded in poly-D-lysine-coated 96 well plates at a density of 70,000 cells per 100 μL. Next, the cells were incubated in HEPES-Hank’s Balanced Salt Solution (HBSS) buffer (Gibco) for 1 h at 37 °C; the cells were then incubated with 100 μL of dye solution (fluorescence imaging plate reader [FLIPR] calcium 5 assay kit; Molecular Devices, Sunnyvale, CA, United States) per well for 1 h at 37 °C. The plate was then inserted into the FLIPR and 25 μL of the test compounds diluted in HEPES-HBSS buffer containing […] probenecid were added online. Increase of the fluorescence signal was measured and the activation potency (EC50) was calculated from the dose-response curves using nonlinear regression. The activation efficacy was calculated relative to 5-HT activity (defined as 100% activity).

[5] = biological target: hSERT (Homo sapiens, UniProt P31645); assay: Radioligand binding, SERT ([3H]citalopram)
Chain of hSERT (P31645 whole entry): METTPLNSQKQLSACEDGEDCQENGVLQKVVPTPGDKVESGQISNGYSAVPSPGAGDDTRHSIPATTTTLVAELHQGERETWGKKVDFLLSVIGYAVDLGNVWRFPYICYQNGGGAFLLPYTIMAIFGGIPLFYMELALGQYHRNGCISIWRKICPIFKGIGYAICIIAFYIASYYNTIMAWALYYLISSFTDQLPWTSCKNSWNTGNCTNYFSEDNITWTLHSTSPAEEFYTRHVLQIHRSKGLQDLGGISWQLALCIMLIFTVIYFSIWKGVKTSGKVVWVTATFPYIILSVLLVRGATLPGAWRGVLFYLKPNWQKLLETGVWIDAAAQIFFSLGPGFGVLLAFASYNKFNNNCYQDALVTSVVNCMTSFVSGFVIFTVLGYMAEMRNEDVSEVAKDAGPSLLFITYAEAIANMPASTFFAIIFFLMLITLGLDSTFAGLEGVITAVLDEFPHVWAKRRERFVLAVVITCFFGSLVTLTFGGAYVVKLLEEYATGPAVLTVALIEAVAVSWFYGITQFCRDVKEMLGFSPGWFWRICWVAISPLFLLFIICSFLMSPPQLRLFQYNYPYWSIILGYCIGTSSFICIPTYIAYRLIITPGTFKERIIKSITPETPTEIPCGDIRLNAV

[6] = biological target: hNET (Homo sapiens, UniProt P23975); assay: Radioligand binding, NET (N-methyl-[3H]nisoxetine)
Chain of hNET (P23975 whole entry): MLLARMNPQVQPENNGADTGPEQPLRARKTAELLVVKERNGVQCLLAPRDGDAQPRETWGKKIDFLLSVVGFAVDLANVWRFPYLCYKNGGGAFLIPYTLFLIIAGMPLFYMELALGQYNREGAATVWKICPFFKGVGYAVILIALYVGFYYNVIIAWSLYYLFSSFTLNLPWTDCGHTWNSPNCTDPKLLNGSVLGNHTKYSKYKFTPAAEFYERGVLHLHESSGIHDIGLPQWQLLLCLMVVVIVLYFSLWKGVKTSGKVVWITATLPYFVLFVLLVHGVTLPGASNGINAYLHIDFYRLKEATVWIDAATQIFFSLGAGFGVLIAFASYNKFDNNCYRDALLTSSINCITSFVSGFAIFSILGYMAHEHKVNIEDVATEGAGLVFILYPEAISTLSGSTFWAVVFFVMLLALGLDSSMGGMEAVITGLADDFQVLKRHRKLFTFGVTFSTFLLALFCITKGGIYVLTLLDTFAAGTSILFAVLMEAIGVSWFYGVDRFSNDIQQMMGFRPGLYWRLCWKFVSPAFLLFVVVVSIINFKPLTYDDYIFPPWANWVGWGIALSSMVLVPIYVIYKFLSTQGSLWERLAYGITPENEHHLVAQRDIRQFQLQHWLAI

Structure (SMILES): C=CCOc1cc(OC)c(CCN)c(OC)c1 [Ψ-2C-O-16, 4-allyloxy-2,6-dimethoxyphenethylamine]
- Ki [1]: 0.5 ± 0.23 µM
- Ki [2]: 0.012 µM
- Ki [3]: 0.67 ± 0.06 µM
- EC50 [4]: 0.039 ± 0.019 µM
- Emax [4]: 49 ± 20%
- Ki ([5]; hSERT Ki ± SD, [3H]citalopram): > 7.5 µM
- Ki [6]: > 8.8 µM

Structure (SMILES): C=C(C)COc1cc(OC)c(CC(C)N)c(OC)c1 (stereo not shown) [Ψ-MMALM, 2,6-dimethoxy-4-methallyloxyamphetamine]
- Ki [1]: 0.29 ± 0.09 µM
- Ki [2]: 0.032 ± 0.005 µM
- Ki [3]: 2.2 µM
- EC50 [4]: 0.058 ± 0.028 µM
- type of agonism at the 5-HT2A receptor [4]: partial agonists
- Emax [4]: 68 ± 9%
- Ki ([5]; hSERT Ki ± SD, [3H]citalopram): > 7.5 µM
- Ki [6]: > 8.8 µM

Structure (SMILES): COc1cc(OCC(F)(F)F)cc(OC)c1CCN [Ψ-2C-O-22, 2,6-dimethoxy-4-(2,2,2-trifluoroethoxy)phenethylamine]
- Ki [1]: 2.2 µM
- Ki [2]: 0.021 ± 0.002 µM
- Ki [3]: 2 µM
- EC50 [4]: 3.4 µM
- Emax [4]: 41 ± 8%
- Ki ([5]; hSERT Ki ± SD, [3H]citalopram): > 7.5 µM
- Ki [6]: > 8.8 µM

Structure (SMILES): COc1cc(OCC(F)F)cc(OC)c1CC(C)N (stereo not shown) [Ψ-MDFEM, 4-(2,2-difluoroethoxy)-2,6-dimethoxyamphetamine]
- Ki [1]: 9.5 µM
- Ki [2]: 0.066 ± 0.013 µM
- Ki [3]: 3.9 µM
- EC50 [4]: 1.1 µM
- Emax [4]: 34 ± 7%
- Ki ([5]; hSERT Ki ± SD, [3H]citalopram): > 7.5 µM
- Ki [6]: > 8.8 µM

Structure (SMILES): COc1cc(OCc2ccccc2)cc(OC)c1CCN [Ψ-2C-O-27, 4-benzyloxy-2,6-dimethoxyphenethylamine]
- Ki [1]: 0.11 ± 0.01 µM
- Ki [2]: 0.0031 ± 0.0002 µM
- Ki [3]: 3.6 µM
- EC50 [4]: 0.41 ± 0.16 µM
- Emax [4]: 42 ± 8%
- Ki ([5]; SERT Ki, no binding observed): < 7.5 µM
- Ki ([5]; hSERT Ki ± SD, [3H]citalopram): > 7.5 µM
- Ki [6]: 6.2 µM

Structure (SMILES): COc1cc(OCc2ccccc2)cc(OC)c1CC(C)N (stereo not shown) [Ψ-MBnM, 4-benzyloxy-2,6-dimethoxyamphetamine]
- Ki [1]: 0.27 ± 0.05 µM
- Ki [2]: 0.0061 ± 0.0007 µM
- Ki [3]: 5.8 µM
- EC50 [4]: 0.43 ± 0.15 µM
- Emax [4]: 39 ± 6%
- Ki ([5]; SERT Ki, no binding observed): < 7.5 µM
- Ki ([5]; hSERT Ki ± SD, [3H]citalopram): > 7.5 µM
- Ki [6]: 7.1 µM

Structure (SMILES): COc1cc(OC)c(CC(C)N)c(OC)c1 (stereo not shown) [TMA-6, 2,4,6-trimethoxyamphetamine]
- Ki [1]: 1.8 µM
- Ki [2]: 0.18 ± 0.02 µM
- Ki [3]: > 8.8 µM
- EC50 [4]: 0.07 ± 0.032 µM
- Emax [4]: 61 ± 12%
- Ki ([5]; hSERT Ki ± SD, [3H]citalopram): > 7.5 µM
- Ki [6]: > 8.8 µM

Structure (SMILES): CCOc1cc(OC)c(CC(C)N)c(OC)c1 (stereo not shown) [Ψ-MEM, 2,6-dimethoxy-4-ethoxyamphetamine]
- Ki [1]: 5.1 µM
- Ki [2]: 0.11 ± 0.01 µM
- Ki [3]: 6.01 µM
- EC50 [4]: 0.65 ± 0.21 µM
- Emax [4]: 54 ± 5%
- Ki ([5]; hSERT Ki ± SD, [3H]citalopram): > 7.5 µM
- Ki [6]: > 8.8 µM

Structure (SMILES): COc1cc(OCCF)cc(OC)c1CCN [Ψ-2C-O-21, 2,6-dimethoxy-4-(2-fluoroethoxy)phenethylamine]
- Ki [1]: 3.5 µM
- Ki [2]: 0.019 ± 0.001 µM
- Ki [3]: 4.6 µM
- EC50 [4]: 0.032 ± 0.002 µM
- fold increase in 5-HT2A activation potency over non-fluorinated counterpart Ψ-2C-O-2 [4]: 3 fold
- Emax [4]: 55 ± 14%
- Ki ([5]; hSERT Ki ± SD, [3H]citalopram): > 7.5 µM
- Ki [6]: > 8.8 µM

Structure (SMILES): COc1cc(OC(F)F)cc(OC)c1CC(C)N (stereo not shown) [Ψ-DODFMO, 4-(2,2-difluoromethoxy)-2,6-dimethoxyamphetamine]
- Ki [1]: 1.8 µM
- Ki [2]: 0.14 ± 0.04 µM
- Ki [3]: 5.9 µM
- EC50 [4]: 0.3 ± 0.1 µM
- Emax [4]: 54 ± 4%
- Ki ([5]; hSERT Ki ± SD, [3H]citalopram): > 7.5 µM
- Ki [6]: > 8.8 µM

Structure (SMILES): C=CCOc1cc(OC)c(CC(C)N)c(OC)c1 (stereo not shown) [Ψ-MALM, 4-allyloxy-2,6-dimethoxyamphetamine]
- Ki [1]: 0.78 ± 0.33 µM
- Ki [2]: 0.058 ± 0.011 µM
- Ki [3]: 1.4 µM
- EC50 [4]: 0.18 ± 0.07 µM
- type of agonism at the 5-HT2A receptor [4]: partial agonists
- Emax [4]: 66 ± 6%
- Ki ([5]; hSERT Ki ± SD, [3H]citalopram): > 7.5 µM
- Ki [6]: > 8.8 µM

Structure (SMILES): COc1cc(OC(F)F)cc(OC)c1CCN [Ψ-2C-O-35, 4-(2,2-difluoromethoxy)-2,6-dimethoxyphenethylamine]
- Ki [1]: 0.51 ± 0.14 µM
- Ki [2]: 0.051 ± 0.004 µM
- Ki [3]: 2.1 µM
- EC50 [4]: 0.26 ± 0.2 µM
- Emax [4]: 16 ± 2%
- Ki ([5]; hSERT Ki ± SD, [3H]citalopram): > 7.5 µM
- Ki [6]: > 8.8 µM

Structure (SMILES): COc1cc(OCC(F)F)cc(OC)c1CCN [Ψ-2C-O-21.5, 4-(2,2-difluoroethoxy)-2,6-dimethoxyphenethylamine]
- Ki [1]: 2.8 µM
- Ki [2]: 0.014 ± 0.003 µM
- Ki [3]: 2 µM
- EC50 [4]: 0.74 ± 0.08 µM
- Emax [4]: 31 ± 5%
- Ki ([5]; hSERT Ki ± SD, [3H]citalopram): > 7.5 µM
- Ki [6]: > 8.8 µM

Structure (SMILES): CCOc1cc(OC)c(CCN)c(OC)c1 [Ψ-2C-O-2, 2,6-dimethoxy-4-ethoxyphenethylamine]
- Ki [1]: 1.5 µM
- Ki [3]: 3.3 µM
- EC50 [4]: 0.099 ± 0.008 µM
- Emax [4]: 53 ± 4%
- Ki ([5]; hSERT Ki ± SD, [3H]citalopram): > 7.5 µM
- Ki [6]: > 8.8 µM

Structure (SMILES): C=C(C)COc1cc(OC)c(CCN)c(OC)c1 [Ψ-2C-O-3, 2,6-dimethoxy-4-methallyloxyphenethylamine]
- Ki [1]: 0.21 ± 0.14 µM
- Ki [2]: 0.0064 ± 0.0011 µM
- Ki [3]: 0.99 ± 0.02 µM
- EC50 [4]: 0.2 ± 0.02 µM
- Emax [4]: 23 ± 10%
- Ki ([5]; hSERT Ki ± SD, [3H]citalopram): > 7.5 µM
- Ki [6]: > 8.8 µM

Structure (SMILES): COc1cc(OCC(F)(F)F)cc(OC)c1CC(C)N (stereo not shown) [Ψ-MTFEM, 2,6-dimethoxy-4-(2,2,2-trifluoroethoxy)amphetamine]
- Ki [1]: 5.5 µM
- Ki [2]: 0.11 ± 0.04 µM
- Ki [3]: 6.1 µM
- EC50 [4]: 1.1 µM
- Emax [4]: 33 ± 6%
- Ki ([5]; hSERT Ki ± SD, [3H]citalopram): > 7.5 µM
- Ki [6]: > 8.8 µM

Structure (SMILES): COc1cc(OCCF)cc(OC)c1CC(C)N (stereo not shown) [Ψ-MFEM, 2,6-dimethoxy-4-(2-fluoroethoxy)amphetamine]
- Ki [1]: 10 µM
- Ki [2]: 0.052 ± 0.018 µM
- Ki [3]: 6.7 µM
- EC50 [4]: 1.3 µM
- Emax [4]: 37 ± 2%
- Ki ([5]; hSERT Ki ± SD, [3H]citalopram): > 7.5 µM
- Ki [6]: > 8.8 µM

Structure (SMILES): COc1cc(OC)c(CCN)c(OC)c1 [Ψ-2C-O-1, 2,4,6-trimethoxyphenethylamine]
- Ki [1]: 1.2 µM
- Ki [2]: 0.057 ± 0.012 µM
- Ki [3]: > 8.8 µM
- EC50 [4]: 0.11 ± 0.02 µM
- Emax [4]: 84 ± 13%
- Ki ([5]; hSERT Ki ± SD, [3H]citalopram): > 7.5 µM
- Ki [6]: > 8.8 µM
